A word on the pIC50: it is the negative decadic logarithm of the IC50, by convention in mol/L.

The record followed here is US7202244B2, “Chk-1 inhibitors” (Millennium Pharmaceuticals, Inc., priority 2002, dated 2007).

pIC50: −log10 of the molar value.

Experiment [1] addresses T1, GST-Chk1 (recombinant human Chk1) (Homo sapiens, UniProt O14757).
T1 construct: made in house; host or cells: insect cells (Bac-to-Bac baculovirus system)
T1 sequence (O14757 1-476): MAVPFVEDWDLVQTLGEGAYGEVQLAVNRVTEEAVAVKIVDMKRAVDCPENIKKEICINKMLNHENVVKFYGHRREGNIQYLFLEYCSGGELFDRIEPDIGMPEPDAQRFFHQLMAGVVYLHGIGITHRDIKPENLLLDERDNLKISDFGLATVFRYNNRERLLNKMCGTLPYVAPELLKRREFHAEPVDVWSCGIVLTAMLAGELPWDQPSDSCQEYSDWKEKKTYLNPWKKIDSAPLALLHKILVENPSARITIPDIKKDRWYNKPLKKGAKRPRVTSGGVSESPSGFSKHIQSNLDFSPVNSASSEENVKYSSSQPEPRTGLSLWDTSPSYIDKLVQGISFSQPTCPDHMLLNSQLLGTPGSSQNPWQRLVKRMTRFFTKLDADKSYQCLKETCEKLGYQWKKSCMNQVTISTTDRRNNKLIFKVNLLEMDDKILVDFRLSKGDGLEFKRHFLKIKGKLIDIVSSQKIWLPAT
As to the kind of experiment: Chk1 FlashPlate kinase assay. Conditions: 1 uM ATP. The experiment is classed as biochemical. Here is the method:
Recombinant human Chk1 was expressed as a fusion protein with glutathione S-transferase at the amino-terminus (GST-Chk1) using standard baculovirus vectors and (Bac-to-Bac®) insect cell expression system purchased from GIBCO™ Invitrogen. Recombinant protein expressed in insect cells was purified using glutathione sepharose (Amersham Biotech) using standard procedures described by the manufacturer.
Chk1 FlashPlate® Kinase Assay:
Reactions were incubated for 30 minutes at room temperature, terminated with 50 ul of 50 mM EDTA and 90 ul were transferred to streptavidin-coated FlashPlates® (NEN) and incubated for 1 hour at room temperature. Plates were washed with phosphate buffered salaine containing 0.01% Tween-20 and 10 mM sodium pyrophosphate. Plates were dried, sealed with Topseal™ (NEN) and amount of ^33P incorporated into the peptide substate measure using a Packard Topcount® NXT™ scintillation counter with standard settings.
Compounds of the present invention were tested in the Chk1 FlashPlate® kinase assay described above.

For experiment [2], the system named is HT29, HCT116 or other cells. Nature of the experiment: WST assay: enhancement of cell killing by DNA damaging agents. The experiment is classed as cell-based. Conditions: shift of 1 = no shift; for Shift 78 nM: Chk1 inhibitor fixed at 78 nM with DNA damaging agent titration; for Shift 156 nM: Chk1 inhibitor fixed at 156 nM with DNA damaging agent titration; for Shift 313 nM: Chk1 inhibitor fixed at 313 nM with DNA damaging agent titration; for Shift 625 nM: Chk1 inhibitor fixed at 625 nM with DNA damaging agent titration; for Shift 1.25 μM: Chk1 inhibitor fixed at 1.25 μM with DNA damaging agent titration; for Shift 2.5 μM: Chk1 inhibitor fixed at 2.5 μM with DNA damaging agent titration. Here is the method:
HT29, HCT116 (5000 cells/well) or other cells were seeded (75 ul) to 96 well clear bottom plates at densities which provide linear growth curves for 72 hours. Cells were cultured under sterile conditions in appropriate media and for HT29 & HCT116 this media was McCoy's 5A containing 10% Fetal Bovine Serum (FBS). Following the initial seeding of cells they are incubated at 37° C., 5% CO2 from 17 to 24 hours at which time the appropriate DNA damaging agents (camptothecins, 5-fluorouracil and etoposid) are added at increasing concentrations to a point which is capable of causing at least 80% cell killing with in 48 hours. Final volume of all DNA damaging agent & compound additions was 25 ul and assays contained <1% DMSO final. At the same time as DNA Damaging agent addition, Chk1 inhibitor was added at fixed concentrations to each DNA damaging agent titration to observe enhancement of cell killing. In addition, toxicity of each Chk1 inhibitor alone was observed. By doing this over a range of Chk1 inhibitor concentrations we were able to identify compounds which maximally enhance (2–30 fold) cell killing by each DNA damaging agent and generated ≦80% cell killing by the compound alone. Cell viability/cell killing under the conditions described above was determined by addition WST reagent (Roche) according to the manufacturer at 47 hours following DNA damage & Chk1 inhibitor addition and following a 3.5 hour or 2.5 hour incubation at 37 C, 5% CO2, OD450 was measured.

For a further experiment, the target named is T2, CHK-1 (Homo sapiens, UniProt O14757).
T2 sequence (O14757 1-476): T1 sequence (O14757 1-476)
Nature of the experiment: IC50 for the test compound versus CHK-1 (Table 2, assay format not stated). The experiment is classed as biochemical.

As for `COc1cc(Cl)c(C)cc1NC(=O)Nc1cnccn1` [Compound 46], in experiment [1], the pIC50 was more than 6.00.

For `Cc1cnc(NC(=O)Nc2cc(Cl)ccc2OCC(C)(C)CN)cn1` [Compound 109], the pIC50 in experiment [1] is more than 7.00. `NCCCOc1ccc(Cl)cc1NC(=O)Nc1ccc(C(N)=O)cn1` [Compound 110]: the pIC50 in experiment [1] is more than 7.00. Same read-out and setting: the same measure for `N#Cc1ccc(NC(=O)Nc2cc(Cl)ccc2OCCCN)nc1` [Compound 111]: more than 7.00; for `Cc1cnc(NC(=O)Nc2cc(Cl)ccc2OCCCNC2CCC2)cn1` [Compound 112]: more than 7.00. Regarding `Cc1cnc(NC(=O)Nc2cc(Cl)ccc2OCCN(C)C)cn1` [Example 3, 1-[5-Chloro-2-(2-dimethylamino-ethoxy)-phenyl]-3-(5-methyl-pyrazin-2-yl)-urea], in experiment [1], the negative logarithm of the IC50 (pIC50) was more than 7.00. On the same count and under the same terms, in the case of `O=C(Nc1cnccn1)Nc1cc(Cl)ccc1OCCN1CCOCC1` [Example 5, 1-[5-Chloro-2-(2-morpholin-4-yl-ethoxy)-phenyl]-3-pyrazin-2-yl-urea] it was more than 6.00; in that of `COc1ccc(Cl)cc1NC(=O)Nc1cnccn1` [Example 6, 1-(5-Chloro-2-methoxy-phenyl)-3-pyrazin-2-yl-urea], more than 6.00; in that of `CC(C)CCOc1ccc(Cl)cc1NC(=O)Nc1cnccn1` [Example 7, 1-[5-Chloro-2-(3-methyl-butoxy)-phenyl]-3-pyrazin-2-yl-urea], more than 6.00. As to `COc1ccc(C)cc1NC(=O)Nc1cnccn1` [Example 8, 1-(2-Methoxy-5-methyl-phenyl)-3-pyrazin-2-yl-urea], the negative logarithm of the IC50 (pIC50) in experiment [1] was more than 6.00. In the case of `O=C(Nc1cnccn1)Nc1ccccc1OC(F)(F)F` [Example 9, 1-Pyrazin-2-yl-3-(2-trifluoromethoxy-phenyl)-urea], in experiment [1], the negative logarithm of the IC50 (pIC50) was more than 6.00. As for `Cc1ccc(Cl)cc1NC(=O)Nc1cnccn1` [Example 10, 1-(5-Chloro-2-methyl-phenyl)-3-pyrazin-2-yl-urea], the pIC50 in experiment [1] is more than 6.00. Still for that read-out and setting: the same measure for `COc1ccc(NC(C)=O)cc1NC(=O)Nc1cnccn1` [Example 11, N-[4-Methoxy-3-(3-pyrazin-2-yl-ureido)-phenyl]-acetamide]: more than 6.00. `COC(=O)c1ccc(OC)c(NC(=O)Nc2cnccn2)c1` [Example 12, 4-Methoxy-3-(3-pyrazin-2-yl-ureido)-benzoic acid methyl ester]: in experiment [1], the pIC50 was more than 6.00. With `COc1ccc(C(F)(F)F)cc1NC(=O)Nc1cnccn1` [Example 13, 1-(2-Methoxy-5-trifluoromethyl-phenyl)-3-pyrazin-2-yl-urea], the negative logarithm of the IC50 (pIC50) in experiment [1] is more than 6.00. Regarding `COc1ccc(NC(=O)Nc2cnccn2)c(OC)c1` [Example 14, 1-(2,4-Dimethoxy-phenyl)-3-pyrazin-2-yl-urea], the pIC50 in experiment [1] was more than 6.00. As to `COc1ccc(Cl)c(NC(=O)Nc2cnccn2)c1` [Example 15, 1-(2-Chloro-5-methoxy-phenyl)-3-pyrazin-2-yl-urea], the pIC50 in experiment [1] is more than 6.00. On to `COc1ccc(Cl)cc1NC(=O)Nc1ccncn1` [Example 16, 1-(5-Chloro-2-methoxy-phenyl)-3-pyrimidin-4-yl-urea], for which the negative-log IC50 (pIC50) in experiment [1] is more than 4.70. Still for that read-out and setting: the same measure for `COc1ccccc1NC(=O)Nc1cnccn1` [Example 17, 1-(2-Methoxy-phenyl)-3-pyrazin-2-yl-urea]: more than 4.70; for `COc1ccc(NC(=O)Nc2cnccn2)cc1Cl` [Example 18, 1-(3-Chloro-4-methoxy-phenyl)-3-pyrazin-2-yl-urea]: more than 4.70. Regarding `O=C(Nc1cccc(Cl)c1)Nc1cnccn1` [Example 19, 1-(3-Chloro-phenyl)-3-pyrazin-2-yl-urea], in experiment [1], the negative-log IC50 (pIC50) is more than 4.70. Turning to `O=C(Nc1ccc(N2CCCCC2)cc1)Nc1cnccn1` [Example 21, 1-(4-Piperidin-1-yl-phenyl)-3-pyrazin-2-yl-urea], in experiment [1], the negative-log IC50 (pIC50) was more than 4.70. As for `O=C(Nc1cnccn1)Nc1cnccn1` [Example 23, 1,3-Di-pyrazin-2-yl-urea], in experiment [1], the pIC50 is more than 4.70. As to `O=C(Nc1ccc2c(c1)OCO2)Nc1cnccn1` [Example 24, 1-Benzo[1,3]dioxol-5-yl-3-pyrazin-2-yl-urea], the pIC50 in experiment [1] was more than 4.70. Take `O=C(Nc1cnccn1)Nc1cc(Cl)ccc1OCCN1CC1` [Example 26, 1-[2-(2-Aziridin-1-yl-ethoxy)-5-chloro-phenyl]-3-pyrazin-2-yl-urea]: in experiment [1], the pIC50 is more than 6.00. Same read-out and setting: the same measure for `O=C(Nc1cnccn1)Nc1cc(Cl)ccc1OCc1cccnc1` [Example 27, 1-[5-Chloro-2-(pyridin-3-ylmethoxy)-phenyl]-3-pyrazin-2-yl-urea]: more than 6.00. In the case of `Cc1cnc(NC(=O)Nc2cc(Cl)ccc2OCCCN)cn1` [Example 28], in experiment [2], the “Shift 78 nM” value was found to be 2.7, the “Shift 156 nM” value worked out at 3.4, the “Shift 313 nM” value came out at 5.3 and the “Shift 625 nM” value came to 6.8. Further, in experiment [2], the “Shift 1.25 μM” value is listed as “toxic” and the “Shift 2.5 μM” value is reported as “toxic”. For the same molecule, the pIC50 against CHK-1 is 8.40. Consider `NCCCOc1ccc(Cl)cc1NC(=O)Nc1cnccn1` [Example 29, 1-[2-(3-Amino-propoxy)-5-chloro-phenyl]-3-pyrazin-2-yl-urea], for which, in experiment [2], the “Shift 78 nM” value worked out at 2.5, the “Shift 156 nM” value is listed as 3.1, the “Shift 313 nM” value came out at 4.5 and the “Shift 625 nM” value is 5.0. In experiment [2], the “Shift 1.25 μM” value is reported as “toxic” and the “Shift 2.5 μM” value was “toxic”. For the same molecule, the pIC50 against CHK-1 is 8.60. In the case of `CN(C)CCCOc1ccc(Cl)cc1NC(=O)Nc1cnc2ccccc2n1` [Example 30, 1-[5-Chloro-2-(3-dimethylamino-propoxy)-phenyl]-3-quinoxalin-2-yl-urea], in experiment [2], the “Shift 1.25 μM” value is given as 1 and the “Shift 2.5 μM” value was 1.4. This molecule gave a pIC50 against CHK-1 of 7.72. As for `NCCCOc1ccc(Cl)cc1NC(=O)Nc1cnc2ccccc2n1` [Example 31, 1-[2-(3-Amino-propoxy)-5-chloro-phenyl]-3-quinoxalin-2-yl-urea], in experiment [2], the “Shift 156 nM” value came to 1.3, the “Shift 313 nM” value was 1.8, the “Shift 625 nM” value came to 2.8 and the “Shift 1.25 μM” value is 4.4. In experiment [2], the “Shift 2.5 μM” value is given as 6.2. At CHK-1, this molecule gave a negative logarithm of the IC50 (pIC50) of 8.30. On to `NCCOc1ccc(Cl)cc1NC(=O)Nc1cnccn1` [Example 32, 1-[2-(2-Amino-ethoxy)-5-chloro-phenyl]-3-pyrazin-2-yl-urea], for which, in experiment [2], the “Shift 1.25 μM” value stood at 1.2 and the “Shift 2.5 μM” value came to 1.4. Besides, the negative logarithm of the IC50 (pIC50) against CHK-1 is 7.80.

As to `Cc1cnc(NC(=O)Nc2cc(Cl)ccc2OCCCCN)cn1` [Example 33, 1-[2-(4-Amino-butoxy)-5-chloro-phenyl]-3-(5-methyl-pyrazin-2-yl)-urea], in experiment [2], the “Shift 78 nM” value is 1.8, the “Shift 156 nM” value is 2.4, the “Shift 313 nM” value stood at 2.7 and the “Shift 625 nM” value stood at 3.1. The negative-log IC50 (pIC50) on CHK-1 is 8.52.

Regarding `COc1cncc(NC(=O)Nc2cc(Cl)ccc2OCCCN)n1` [Example 34], in experiment [2], the “Shift 1.25 μM” value was found to be 2.4 and the “Shift 2.5 μM” value was found to be 3.031. In addition, the pIC50 at CHK-1 was 7.70. `Cc1ccc(OCCCN(C)C)c(NC(=O)Nc2cnccn2)c1` [Example 35, 1-[5-Methyl-2-(3-dimethylamino-propoxy)-phenyl]-3-pyrazin-2-yl-urea]: in experiment [2], the “Shift 1.25 μM” value was 2.1 and the “Shift 2.5 μM” value was determined as 2.9. Further, the negative-log IC50 (pIC50) at CHK-1 is 7.80.
